Read-outs that look alike come from different tables or passages of the source.
Experiments:
[1] = molecular target: T1, cytoplasmic domain of the human CSF-1R (Homo sapiens, UniProt P07333); assay: In vitro kinase assay for colony stimulating factor-1 receptor (AlphaScreen); assay type: biochemical; conditions: tested at about 1 μM, read-out: CSF-1R percent inhibition
T1 construct: Recombinant protein corresponding to the cytoplasmic domain of the human CSF-1R; purchased Invitrogen Corporation, Carlsbad, Calif; PV3249
T1 sequence (P07333 539-972 limits assumed): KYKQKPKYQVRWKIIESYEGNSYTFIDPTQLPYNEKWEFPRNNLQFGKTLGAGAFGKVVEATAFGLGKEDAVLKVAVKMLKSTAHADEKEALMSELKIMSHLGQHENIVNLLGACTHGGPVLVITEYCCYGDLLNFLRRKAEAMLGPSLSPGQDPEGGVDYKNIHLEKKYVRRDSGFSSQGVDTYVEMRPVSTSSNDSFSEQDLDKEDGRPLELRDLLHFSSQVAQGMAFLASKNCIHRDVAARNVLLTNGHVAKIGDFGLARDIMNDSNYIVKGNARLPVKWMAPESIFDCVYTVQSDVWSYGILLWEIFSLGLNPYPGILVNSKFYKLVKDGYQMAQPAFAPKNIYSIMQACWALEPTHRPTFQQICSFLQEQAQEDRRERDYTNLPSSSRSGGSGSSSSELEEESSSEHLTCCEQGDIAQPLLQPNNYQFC
Summary of the method: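 Tyrosine phosphorylation of a peptide substrate by 4 nM recombinant cytoplasmic-domain enzyme is measured at 1 μM ATP in Mn2+/Mg2+-containing Hepes buffer, pH 7.5. Detection uses PT66 AlphaScreen beads after overnight incubation.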

[2] = molecular target: T2, kinase domain of cKIT (Homo sapiens, UniProt P10721); assay: Inhibition of cKIT kinase signaling in an in vitro biochemical assay (alphascreen); conditions: tested at about 1 μM, read-out: cKit percent inhibition
T2 construct: The kinase domain of cKIT was assayed in 50 mM Hepes; purchased Upstate 14-559

[3] = molecular target: T3, kinase domain of PDGFRβ (Homo sapiens, UniProt P09619); assay: Inhibition of PDGFRb kinase signaling in an in vitro biochemical assay (alphascreen); conditions: tested at about 1 μM, read-out: PDGFRβ percent inhibition
T3 construct: The kinase domain of PDGFRβ was assayed in 50 mM Hepes; purchased Invitrogen P3082

[4] = tested on: MNFS60 (murine AML cells); assay: Cell viability assay in MCSF dependent MNFS60 cells (Cell Titer Glo); assay type: cell-based; conditions: Mus musculus, tested at about 1 μM, read-out: M-NFS-60 CP percent inhibition
Procedure: Cell viability was assessed by Cell Titer Glo, Promega. […] Test compounds were serially diluted (3 fold) in DMSO to 500× the final concentration. […] Final concentration of MCSF is 10 ng/ml. Cells were incubated for 72 hrs at 37° C., 5% CO2. After the incubation 100 μl Cell Titer Glo is added to each well to determine viable cells. The assay was performed according to the manufacturer's instruction (Promega Corporation, Madison, Wis. USA). Each experimental condition was performed in triplicate. Raw data was imported in Abase and EC50s calculated with XL-fit data analysis software.

T3 sequence (P09619 600-962 limits assumed): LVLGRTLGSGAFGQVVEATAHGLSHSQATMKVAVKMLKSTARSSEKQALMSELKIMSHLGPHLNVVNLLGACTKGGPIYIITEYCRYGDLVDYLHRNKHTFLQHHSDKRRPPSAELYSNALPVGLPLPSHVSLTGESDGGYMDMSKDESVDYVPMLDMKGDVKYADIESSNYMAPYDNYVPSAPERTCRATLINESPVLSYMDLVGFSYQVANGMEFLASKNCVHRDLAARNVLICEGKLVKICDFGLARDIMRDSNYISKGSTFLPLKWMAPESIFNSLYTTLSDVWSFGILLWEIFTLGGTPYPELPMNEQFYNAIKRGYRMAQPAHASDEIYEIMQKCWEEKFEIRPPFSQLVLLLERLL
T2 sequence (P10721 589-937 limits assumed): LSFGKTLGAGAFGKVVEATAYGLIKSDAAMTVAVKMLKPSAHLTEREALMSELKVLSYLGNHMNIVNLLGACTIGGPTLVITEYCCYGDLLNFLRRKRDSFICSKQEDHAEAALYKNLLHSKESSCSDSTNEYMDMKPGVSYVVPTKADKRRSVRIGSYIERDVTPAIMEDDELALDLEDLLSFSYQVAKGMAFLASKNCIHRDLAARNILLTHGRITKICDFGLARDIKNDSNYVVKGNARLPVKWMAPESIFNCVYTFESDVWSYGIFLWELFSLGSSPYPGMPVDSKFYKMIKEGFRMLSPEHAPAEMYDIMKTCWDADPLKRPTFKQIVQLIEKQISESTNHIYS

| Compound | inhibition at 1 µM ([1]; compounds of Table 3) [%] | inhibition at 1 µM ([2]; compounds of Table 3) [%] | inhibition at 1 µM ([3]; compounds of Table 3) [%] | inhibition at 1 µM [1] [%] | inhibition at 1 µM [2] [%] | inhibition at 1 µM [3] [%] | inhibition at 1 µM ([4]; compounds of Table 3) [%] | inhibition at 1 µM ([4]; MCSF dependent MNFS60 cells) [%] | inhibition at 1 µM ([4]; MNFS60 cells) [%] |
| --- | --- | --- | --- | --- | --- | --- | --- | --- | --- |
| Cc1nn(C)c(C)c1-c1cc(Oc2ccc3nc(N[C@@H]4CCCC[C@H]4O)sc3c2)ccn1 [Example 283, (1R,2R)-2-(6-(2-(1,3,5-trimethyl-1H-pyrazol-4-yl)pyridin-4-yloxy)benzo[d]thiazol-2-ylamino)cyclohexanol] | 99 | 38 | 20 | – | – | – | 0 | – | – |
| OC[C@H](CC1CCCCC1)Nc1nc2ccc(Oc3ccnc4ccccc34)cc2s1 [Example 250] | 97 | 98 | 0 | – | – | – | 20 | – | – |
| c1ccc2c(Oc3ccc4nc(NCCN5CCOCC5)sc4c3)ccnc2c1 [Example 255, N-(2-morpholinoethyl)-6-(quinolin-4-yloxy)benzo[d]thiazol-2-amine] | 100 | 92 | 8 | – | – | – | 69 | – | – |
| O[C@@H]1CCCC[C@H]1Nc1nc2ccc(Oc3ccnc(N4CCOCC4)c3)cc2s1 [Cmpd 175, (1R,2R)-2-(6-(2-morpholinopyridin-4-yloxy)benzo[d]thiazol-2-ylamino)cyclohexanol] | 100 | 11 | 1 | – | – | – | 17 | – | – |
| CNC(=O)c1cc(Oc2ccc3nc(N[C@@H](C)C(C)C)sc3c2)ccn1 [Compound 150] | 100 | 24 | 2 | – | – | – | 22 | – | – |
| OC[C@@H](Nc1nc2ccc(Oc3ccnc4ccccc34)cc2s1)c1ccccc1 [Example 235, (S)-2-phenyl-2-(6-(quinolin-4-yloxy)benzo[d]thiazol-2-ylamino)ethanol] | 100 | 100 | 81 | – | – | – | 100 | – | – |
| CNC(=O)c1cc(Oc2ccc3nc(NCc4ccc(S(N)(=O)=O)cc4)sc3c2)ccn1 [Compound 161, 4-[2-(4-Sulfonamido-benzyl-amino)-benzothiazol-6-yloxy]-pyridine-2-carboxylic acid methylamide] | – | – | – | 100 | 0 | 94 | – | – | 38 |
| CNC(=O)c1cc(Oc2ccc3nc(NC4C[C@@H]5CC[C@H]4C5)sc3c2)ccn1 (stereo partly drawn) [Compound 140] | 100 | 27 | 100 | – | – | – | 25 | – | – |
| CNC(=O)c1cc(Oc2ccc3nc(NCc4cc(OC)ccc4OC)oc3c2)ccn1 [Compound 83, 4-[2-(2,5-Dimethoxy-benzyl-amino)-benzooxazol-6-yloxy]-pyridine-2-carboxylic acid methylamide] | – | – | – | 99 | 12 | 0 | – | – | 26 |
| Cc1cc(Oc2ccc3nc(NCC4CCCCC4)sc3c2)ccn1 [Example 202] | 100 | 32 | 19 | – | – | – | 17 | – | – |
| Nc1ncc(-c2cc(Oc3ccc4nc(N[C@@H]5CCCC[C@H]5O)sc4c3)ccn2)cc1C(F)(F)F [Example 282, (1R,2R)-2-(6-(6'-amino-5'-(trifluoromethyl)-2,3'-bipyridin-4-yloxy)benzo[d]thiazol-2-ylamino)cyclohexanol] | 99 | 23 | 7 | – | – | – | 22 | – | – |
| CCc1nc(-c2cc(Oc3ccc4nc(N[C@@H](C)C5CCCCC5)sc4c3)ccn2)[nH]c1CC [Example 272, (S)-N-(1-cyclohexylethyl)-6-(2-(4,5-diethyl-1H-imidazol-2-yl)pyridin-4-yloxy)benzo[d]thiazol-2-amine] | 98 | 24 | 7 | – | – | – | 38 | – | – |
| CNC(=O)c1cc(Oc2ccc3nc(NC4CC=CCC4)oc3c2)ccn1 (stereo not drawn) [Compound 70, 4-[2-(Cyclohex-3-enylamino)-benzooxazol-6-yloxy]-pyridine-2-carboxylic acid methylamide] | – | – | – | 99 | 0 | 0 | – | – | 0 |
| CNC(=O)c1cc(Oc2ccc3nc(N[C@H](CO)Cc4ccccc4)oc3c2)ccn1 [Compound 8] | 95 | 99 | 31 | – | – | – | 0 | – | – |
| CNC(=O)c1cc(Oc2ccc3nc(NCc4ccc(OC)c(OC)c4)sc3c2)ccn1 [Compound 151, 4-[2-(3,4-Dimethoxy-benzyl-amino)-benzothiazol-6-yloxy]-pyridine-2-carboxylic acid methylamide] | – | – | – | 99 | 5 | 0 | – | – | 26 |
| CNC(=O)c1cc(Oc2ccc3nc(NCCC4CC4)sc3c2)ccn1 [Example 290, 4-(2-(2-cyclopropylethylamino)benzo[d]thiazol-6-yloxy)-N-methylpicolinamide] | 100 | 10 | 15 | – | – | – | 2 | – | – |
| c1cncc(CNc2nc3ccc(Oc4ccnc5ccccc45)cc3s2)c1 [Example 254, N-(pyridin-3-ylmethyl)-6-(quinolin-4-yloxy)benzo[d]thiazol-2-amine] | 100 | 98 | 0 | – | – | – | 100 | – | – |

Now from value to compound, other results behind:

| inhibition at 1 µM ([1]; compounds of Table 3) [%] | inhibition at 1 µM ([2]; compounds of Table 3) [%] | inhibition at 1 µM ([3]; compounds of Table 3) [%] | inhibition at 1 µM [1] [%] | inhibition at 1 µM [2] [%] | inhibition at 1 µM [3] [%] | Compound | inhibition at 1 µM ([4]; compounds of Table 3) [%] | inhibition at 1 µM ([4]; MCSF dependent MNFS60 cells) [%] | inhibition at 1 µM ([4]; MNFS60 cells) [%] |
| --- | --- | --- | --- | --- | --- | --- | --- | --- | --- |
| – | – | – | 100 | 100 | 91 | Cn1cc(-c2cc(Oc3ccc4nc(N[C@H]5c6ccccc6C[C@H]5O)sc4c3)ccn2)cn1 [Example 350, (1S,2R)-1-(6-(2-(1-methyl-1H-pyrazol-4-yl)pyridin-4-yloxy)benzo[d]thiazol-2-ylamino)-2,3-dihydro-1H-inden-2-ol] | – | 100 | – |
| – | – | – | 100 | 97 | 38 | CNC(=O)c1cc(Oc2cc(Cl)c3nc(NCC4CCCCC4)sc3c2)ccn1 [Example 375, 4-(4-chloro-2-(cyclohexylmethylamino)benzo[d]thiazol-6-yloxy)-N-methylpicolinamide] | – | 19 | – |
| – | – | – | 100 | 91 | 44 | Cn1cc(-c2cc(Oc3ccc4nc(NC[C@@H](O)c5ccccc5)sc4c3)ccn2)cn1 [Example 357, (S)-2-(6-(2-(1-methyl-1H-pyrazol-4-yl)pyridin-4-yloxy)benzo[d]thiazol-2-ylamino)-1-phenylethanol] | – | 100 | – |
| – | – | – | 99 | 21 | 19 | CNC(=O)c1cc(Oc2ccc3nc(N[C@@H]4CCC[C@H]4O)sc3c2)ccn1 [Example 324, 4-(2-((1R,2R)-2-hydroxycyclopentylamino)benzo[d]thiazol-6-yloxy)-N-methylpicolinamide] | – | 15 | – |
| – | – | – | 100 | 59 | 28 | COCCNc1cc(Oc2ccc3nc(NCC4CCCCC4)sc3c2)ccn1 [Example 343, N-(cyclohexylmethyl)-6-(2-(2-methoxyethylamino)pyridin-4-yloxy)benzo[d]thiazol-2-amine] | – | 57 | – |
| – | – | – | 100 | 24 | 8 | CNc1cc(Oc2ccc3nc(N[C@@H]4CCCC[C@H]4O)sc3c2)ccn1 [Example 368, (1R,2R)-2-(6-(2-(methylamino)pyridin-4-yloxy)benzo[d]thiazol-2-ylamino)cyclohexanol] | – | 12 | – |
| 98 | 13 | 0 | – | – | – | CNC(=O)c1cc(Oc2ccc3nc(N[C@@H]4CCCC[C@H]4NC(C)=O)sc3c2)ccn1 [Example 298, 4-(2-((1R,2R)-2-acetamidocyclohexylamino)benzo[d]thiazol-6-yloxy)-N-methylpicolinamide] | 41 | – | – |
